Measurements as given in PMC8151276, “An Integrated Approach toward NanoBRET Tracers for Analysis of GPCR Ligand Engagement” (Molecules, 2021).

What was measured:
[1] = biological target: T1, ADORA1 (Homo sapiens, UniProt P30542); test: NanoBRET screen HiBiT-ADORA1 in HEK293; format: binding; conditions: ADORA1
T1 construct: purchased Promega (in-house HiBiT-GPCR construct library, NanoBRET)
T1 sequence (P30542 1-326): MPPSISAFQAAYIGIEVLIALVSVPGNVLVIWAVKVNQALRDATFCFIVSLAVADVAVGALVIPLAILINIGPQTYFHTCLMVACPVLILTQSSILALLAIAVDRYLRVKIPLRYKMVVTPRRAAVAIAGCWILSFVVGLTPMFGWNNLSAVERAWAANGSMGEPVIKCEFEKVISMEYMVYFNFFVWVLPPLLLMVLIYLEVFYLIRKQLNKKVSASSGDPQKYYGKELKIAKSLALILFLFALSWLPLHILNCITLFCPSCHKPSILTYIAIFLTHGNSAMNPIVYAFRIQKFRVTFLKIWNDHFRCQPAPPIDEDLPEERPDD
Method: (§1) Each tracer candidate was screened across the entire library of HiBiT-GPCR constructs using NanoBRET as the detection modality. As depicted in Figure 4A, the specificity of interactions was evaluated through decrease in BRET due to competitive displacement of a bound tracer by excess parental compound. Each tracer was analyzed for binding to each HiBiT-GPCR fusion in the absence and in the presence of competing parental compound. Briefly, HEK293 cells were transfected with HiBiT-GPCR constructs diluted into promoterless DNA to reduce expression and maximize translocation to the cell surface. Each tracer candidate was then screened at concentrations of 1 μM and 0.1 μM across cells expressing these fusions. Cells were treated for 1.5 h with tracer either alone or in the presence of 20 μM competing parental compound (i.e., control). BRET was measured upon addition of purified LgBiT and subsequent complementation with HiBiT genetically fused to a GPCR. The specificity of interactions was assessed through a decrease in BRET signal due to competitive displacement of the bound tracer. To further gauge the robustness of these interactions, the fold response over the control (i.e., BRETtracer/BRETcontrol) was calculated. We chose a 1.5-fold response, which translates to ≥7-fold signal over noise as the minimal threshold required to score an interaction as positive. […]. Below we highlight the screening results obtained for our exemplary fluorescent tracers based on Clozapine, Amitriptyline and AZD1283.
(§2) HiBiT-GPCR DNA constructs were diluted in 10 mM Tris pH 8 to a final concentration of 0.01 μg/μL, arrayed in 96-well plates and stored at −20 °C. For transfection, HEK293 cells were suspended in Opti-MEM (without phenol red) supplemented with 2% fetal bovine serum (Seradigm) and 100 units/mL penicillin–streptomycin (Gibco) at a final concentration of 220,000 cells/mL and dispensed into white 96-well plates at 90 μL/well. Subsequent transfections and screens were carried using an Agilent Bravo Automated Liquid Handling Platform. First, the 96-well HiBiT DNA arrays were diluted 25-fold in Opti-MEM (without serum or phenol red) to a final concentration of 0.0004 μg/μL and 20 μL of the diluted DNAs were transferred into new 96-well plates. Next, promoterless carrier DNA (1 μg/μL) was diluted 25-fold (0.04 μg/μL) and then dispensed into the diluted arrays at 20 μL/well. Following brief mixing, Viafect transfection reagent (Promega) diluted 16-fold into Opti-MEM was dispensed into the plates at 40 μL/well. After mixing by pipetting, plates were incubated for 10 min on the pipetting station deck. The DNA-transfection reagent complexes were then added to plates containing cells. To facilitate the screen, 10 μL of DNA-transfection reagent complexes were added in duplicates to the top 4 and bottom 4 rows, resulting in two identical 48-well arrays per plate. Plates with transfected cells were incubated for 18–20 h at 37 °C/5% CO2. A screen of each tracer across the entire library using two different concentrations requires duplicate plates of transfected cells. Depending on the number of tracers being screened, transfections can be scaled up using the same ratios. The next day, for each tracer, four 20× screening solutions in tracer dilution buffer (Promega) were prepared: two duplicates at final concentration of 20 μM and two duplicates at a final concentration of 2 μM. A competing unmodified compound was added to one of each duplicate at a final concentration of 400 μM. The four resulting solutions were diluted 4-fold in Opti-MEM without serum or phenol red to generate 5× solutions (5 µM and 0.5 µM tracer +/− 100 μM competing compound). To screen the library, a BioTek MultiFlo FX liquid dispenser was used to dispense 22.5 µL of tracer solution to the top 4 rows and 22.5 µL tracer + competing compound solution to the 4 bottom rows. Plates were briefly mixed on an orbital shaker and incubated for 1.5 h at room temperature. […]

[2] = biological target: T2, AGTR1 (Homo sapiens, UniProt P30556); test: NanoBRET screen HiBiT-AGTR1 in HEK293; format: binding; conditions: AGTR1
T2 construct: purchased Promega (in-house HiBiT-GPCR construct library, NanoBRET)
T2 sequence (P30556 1-359): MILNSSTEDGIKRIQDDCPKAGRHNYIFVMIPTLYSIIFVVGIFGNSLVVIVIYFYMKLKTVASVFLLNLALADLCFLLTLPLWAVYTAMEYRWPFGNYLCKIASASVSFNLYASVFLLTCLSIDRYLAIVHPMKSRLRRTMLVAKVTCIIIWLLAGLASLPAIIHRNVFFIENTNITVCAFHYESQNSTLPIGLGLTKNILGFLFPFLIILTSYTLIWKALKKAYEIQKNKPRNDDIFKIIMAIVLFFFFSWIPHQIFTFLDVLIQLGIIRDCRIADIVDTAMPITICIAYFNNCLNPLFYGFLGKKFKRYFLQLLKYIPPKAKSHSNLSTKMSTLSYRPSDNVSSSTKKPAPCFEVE
Method: as §1, §2

| SMILES | NanoBRET Fold Response ([1]; tracer 0.1μM) | NanoBRET Fold Response ([1]; tracer 1μM) | NanoBRET Fold Response ([2]; tracer 0.1μM) | NanoBRET Fold Response ([2]; tracer 1μM) |
| --- | --- | --- | --- | --- |
| CC(C)N(CC[C@H](c1ccccc1)c1cc(CCNC(=O)CCOCCOCCOCCOCCNC(=O)CCc2ccc3n2[B-](F)(F)[N+]2=C(c4ccc[nH]4)C=CC2=C3)ccc1O)C(C)C [Tolterodine-2-NB590] | 0.95 | 0.99 | 1.12 | 1.00 |
| CC(C)N(CC[C@H](c1ccccc1)c1cc(CCNC(=O)c2ccc(CNC(=O)CCc3ccc4n3[B-](F)(F)[N+]3=C(c5ccc[nH]5)C=CC3=C4)cc2)ccc1O)C(C)C [Tolterodine-BZ-NB590] | 1.18 | 1.02 | 1.06 | 1.00 |
| CCCn1c(=O)c2[nH]c(-c3ccc(OCC(=O)NCCNC(=O)CCOCCNC(=O)c4ccc(CNC(=O)CCc5ccc6n5[B-](F)(F)[N+]5=C(c7ccc[nH]7)C=CC5=C6)cc4)cc3)nc2n(CCC)c1=O [XAC-3-NB590] | 10.95 | 7.99 | 1.24 | 1.19 |
